Experiments:
human motilin receptor = human motilin receptor (Homo sapiens, UniProt O43193); experiment: Competitive radioligand binding assay (Method B1); set-up: purchased PerkinElmer 6110544; host or cells: CHO cells, stably transfected (membranes); settings: Radioligand competitive binding assay, Method B1; values reported as ranges; read-out: Ki (binding activity)
Description: Competitive Radioligand Binding Assay (Motilin Receptor)
• Membranes were prepared from CHO cells stably transfected with the human motilin receptor and utilized at a quantity of 1.5 μg/assay point.
Final Test Concentrations (N=11) for Compounds:
Compounds were provided frozen on dry ice at a stock concentration of 10 mM diluted in 100% DMSO and stored at −20° C. until the day of testing. On the test day, compounds were allowed to thaw at room temperature and than diluted in assay buffer according to the desired test concentrations. Under these conditions, the maximum final DMSO concentration in the assay was 0.5%.
Plates are sealed with TopSeal-A, vortexed gently and incubated at room temperature for 2 hours. The reaction is arrested by filtering samples through pre-soaked (0.3% polyethyleneimine, 2 h) Multiscreen Harvest plates using a Tomtec® Harvester (Tomtec, Hamden, Conn.)), washed 9 times with 500 μL of cold 50 mM Tris-HCl (pH 7.4), and than plates are air-dried in a fumehood for 30 minutes. A bottom seal is applied to the plates prior to the addition of 25 μL of MicroScint-0™ to each well.
Data are analyzed by GraphPad™ Prism (GraphPad Software, San Diego, Calif.) using a variable slope non-linear regression analysis.
where total and non-specific binding represent the cpm obtained in the absence or presence of 1 μM motilin, respectively.

motilin receptor = biological target: T1, motilin receptor (Oryctolagus cuniculus, UniProt G1T803); experiment: Rabbit duodenum contractility assay (Method B4)
T1 construct: Duodenal segments were vertically suspended in organ chambers; from tissue; host or cells: rabbit duodenum segments
Description: Compounds of the present invention have shown significant antagonist activity in this assay.
Rabbit Duodenum Contractility Assay
Duodenal segments were vertically suspended in organ chambers of 10 mL filled with Krebs buffer and connected to an isotonic force transducer, with a preload of 1 g. After a stabilization period, the muscle strips were challenged with 10^−4 M acetylcholine and washed. This was repeated until a stable maximal contraction was obtained (2-3 times), with an interval of at least 20 minutes.
After a stable base line was reached, test compounds were added to the bath. After 15 min incubation, a dose response to motilin was recorded by adding logarithmically increasing concentrations of motilin to the bath (final concentration 10^−9 to 10^−6 M). A blank experiment (no test compound present) was also performed. At the end of the dose response curve, a supramaximal dose of acetylcholine (10^−4 M) was given and this response was used as a reference (100% contraction).
The results of experiments at different concentrations of test compound were combined and analyzed to derive the pA2 value from the Schild plot.

Sequence of human motilin receptor (O43193 whole entry): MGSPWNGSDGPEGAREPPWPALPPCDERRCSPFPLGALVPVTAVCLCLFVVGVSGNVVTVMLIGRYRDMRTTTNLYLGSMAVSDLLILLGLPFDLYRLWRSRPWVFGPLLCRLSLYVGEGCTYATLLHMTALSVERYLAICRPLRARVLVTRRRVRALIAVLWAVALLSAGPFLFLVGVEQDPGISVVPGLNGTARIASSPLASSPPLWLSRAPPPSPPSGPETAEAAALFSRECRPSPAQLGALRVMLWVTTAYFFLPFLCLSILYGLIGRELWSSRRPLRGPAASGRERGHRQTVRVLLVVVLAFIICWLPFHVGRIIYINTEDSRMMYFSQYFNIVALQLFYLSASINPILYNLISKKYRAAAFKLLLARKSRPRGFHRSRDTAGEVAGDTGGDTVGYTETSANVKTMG
T1 sequence (G1T803 1-400): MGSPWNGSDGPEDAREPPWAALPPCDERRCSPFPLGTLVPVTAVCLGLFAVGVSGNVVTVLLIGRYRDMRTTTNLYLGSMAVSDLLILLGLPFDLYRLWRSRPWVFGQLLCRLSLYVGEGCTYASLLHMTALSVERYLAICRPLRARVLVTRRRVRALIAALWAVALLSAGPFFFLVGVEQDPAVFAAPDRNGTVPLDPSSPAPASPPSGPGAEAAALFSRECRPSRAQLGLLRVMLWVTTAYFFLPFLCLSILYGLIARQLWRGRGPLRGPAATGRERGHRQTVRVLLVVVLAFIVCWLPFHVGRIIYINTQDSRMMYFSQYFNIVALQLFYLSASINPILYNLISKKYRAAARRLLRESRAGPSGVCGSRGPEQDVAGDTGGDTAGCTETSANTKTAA

Ki (human motilin receptor) [µM] | SMILES | Kb (motilin receptor) [µM]
0.1 to 1 | CC(C)CC1NC(=O)C(C(C)C)NC(=O)C(Cc2cccc3ccccc23)NCCOc2cccnc2CCCNC1=O (stereo not drawn) [Compound 136] | –
0.1 to 1 | CC(C)CC1NC(=O)C(C(C)C)NC(=O)C(Cc2cccs2)NCCOc2cccnc2CCCNC1=O (stereo not drawn) [Compound 137] | –
0.1 to 1 | CC(C)CC1NC(=O)C(C(C)C)NC(=O)C(Cc2ccc(Cl)cc2)NCCOc2cccnc2CCCNC1=O (stereo not drawn) [Compound 139] | –
0.1 to 1 | CC(C)CC1NC(=O)C(C(C)C)NC(=O)C(Cc2ccc(F)cc2)NCCOc2cccnc2CCCNC1=O (stereo not drawn) [Compound 140] | –
0.001 to 0.1 | COc1ccc(C[C@H]2NCCOc3ccccc3CCCNC(=O)[C@H](CC3CC3)NC(=O)[C@@H](C(C)C)NC2=O)cc1 [Compound 141] | –
0.001 to 0.1 | CC(C)[C@H]1NC(=O)[C@@H](Cc2ccc(Cl)cc2)NCCOc2ccccc2CCCNC(=O)[C@H](CC2CC2)NC1=O [Compound 145] | –
0.1 to 1 | CC(C)C1NC(=O)C(Cc2ccc(Cl)cc2)NCCOc2cccnc2CCCNC(=O)C(CC2CC2)NC1=O (stereo not drawn) [Compound 150] | –
0.1 to 1 | COc1ccc(CC2NCCOc3ccccc3CCCNC(=O)C(CN)NC(=O)C(C(C)C)NC2=O)cc1 (stereo not drawn) [Compound 152] | –
0.1 to 1 | CC(C)C1NC(=O)C(Cc2cccc3ccccc23)NCCOc2ccccc2CCCNC(=O)C(CN)NC1=O (stereo not drawn) [Compound 153] | –
0.1 to 1 | CC(C)C1NC(=O)C(Cc2cccs2)NCCOc2ccccc2CCCNC(=O)C(CN)NC1=O (stereo not drawn) [Compound 154] | –
0.001 to 0.1 | CC(C)[C@H]1NC(=O)[C@@H](Cc2cccc(Cl)c2)NCCOc2ccccc2CCCNC(=O)[C@H](CN)NC1=O [Compound 155] | –
0.001 to 0.1 | CC(C)[C@H]1NC(=O)[C@@H](Cc2ccc(Cl)cc2)NCCOc2ccccc2CCCNC(=O)[C@H](CN)NC1=O [Compound 156] | –
0.1 to 1 | CC(C)C1NC(=O)C(Cc2ccc(F)cc2)NCCOc2ccccc2CCCNC(=O)C(CN)NC1=O (stereo not drawn) [Compound 157] | –
0.001 to 0.1 | CC(C)[C@H]1NC(=O)[C@@H](Cc2cccc(Cl)c2)NCCOc2cccnc2CCCNC(=O)[C@H](CN)NC1=O [Compound 158] | –
0.1 to 1 | CCCC1NC(=O)C(C(C)CC)NC(=O)C(Cc2ccc(O)cc2)NCCOc2ccccc2CCCNC1=O (stereo not drawn) [Compound 159] | –
0.1 to 1 | CCCC1NC(=O)C(C(C)CC)NC(=O)C(Cc2ccc(O)cc2)NCCOc2ccccc2CCCNC1=O (stereo not drawn) [Compound 160] | –
0.1 to 1 | CCCC1NC(=O)C(C(C)C)NC(=O)C(Cc2ccc(CN)cc2)NCCOc2ccccc2CCCNC1=O (stereo not drawn) [Compound 161] | –
0.1 to 1 | CCCC1NC(=O)C(C(C)C)NC(=O)C(Cc2ccccc2C)NCCOc2ccccc2CCCNC1=O (stereo not drawn) [Compound 162] | –
0.001 to 0.1 | CCC[C@@H]1NC(=O)[C@@H](C(C)C)NC(=O)[C@@H](Cc2cccc(C)c2)NCCOc2ccccc2CCCNC1=O [Compound 163] | –
0.1 to 1 | CCC[C@@H]1NC(=O)[C@@H](C(C)C)NC(=O)[C@@H](Cc2ccc(C)cc2)NCCOc2ccccc2CCCNC1=O [Compound 164] | –
0.1 to 1 | CCCC1NC(=O)C(C(C)C)NC(=O)C(Cc2ccccc2OC)NCCOc2ccccc2CCCNC1=O (stereo not drawn) [Compound 166] | –
0.1 to 1 | CCCC1NC(=O)C(C(C)C)NC(=O)CC(Cc2cccc(Cl)c2)NCCOc2ccccc2CCCNC1=O (stereo not drawn) [Compound 169] | –
0.001 to 0.1 | CCC[C@@H]1NC(=O)[C@@H](C(C)C)NC(=O)[C@@H](Cc2ccc(Cl)c(Cl)c2)NCCOc2ccccc2CCCNC1=O [Compound 170] | –
0.001 to 0.1 | CCC[C@@H]1NC(=O)[C@@H](C(C)C)NC(=O)[C@@H](Cc2ccc(F)c(F)c2)NCCOc2ccccc2CCCNC1=O [Compound 171] | –
0.001 to 0.1 | CCC[C@@H]1NC(=O)[C@@H](C(C)C)NC(=O)[C@@H](Cc2ccc(OC)c(OC)c2)NCCOc2ccccc2CCCNC1=O [Compound 172] | –
0.1 to 1 | CCCC1NC(=O)C(C(C)C)NC(=O)C(Cc2ccc(O)cc2)NCCOc2ccccc2CCNC1=O (stereo not drawn) [Compound 177] | –
0.1 to 1 | COc1ccc(CC2NCCOc3ccccc3CCCNC(=O)C(CO)NC(=O)C(C(C)C)NC2=O)cc1 (stereo not drawn) [Compound 178] | –
0.1 to 1 | CC(C)C1NC(=O)C(Cc2cccc3ccccc23)NCCOc2ccccc2CCCNC(=O)C(CO)NC1=O (stereo not drawn) [Compound 179] | –

SMILES | Ki (human motilin receptor) [µM] | Kb (motilin receptor) [µM]
CCC[C@@H]1NC(=O)[C@@H](C(C)C)NC(=O)[C@@H](Cc2cccc(OC)c2)NCCOc2ccccc2CCCNC1=O [Compound 165] | 0.001 to 0.1 | 0.0676

— US20090240027A1, “INTERMEDIATES FOR MACROCYCLIC COMPOUNDS” (Tranzyme Pharma Inc., priority 2003, published 2009)
